Experimental findings from US5859007A, “CCK or gastrin modulating benzo [b][1,4] diazepines derivatives” (Glaxo Wellcome Inc., priority 1994, dated 1999) are described below.

Like-named read-outs stand apart in the source and are kept apart here. No end group written: not given here.

Assay [1] concerns isolated guinea pig gallbladder. Put plainly: Functional activity in isolated guinea pig gallbladder preparation. It counts as cell-based. The following applies: for activation at 1 µM / activation at 30 µM: Cavia porcellus; for activation at 1 µM: 1 × 10^-6 M test compound, read-out: %Contraction (1 × 10^-6 M).
Assay [2] relates to rat gastric emptying. Description: Rat gastric emptying assay. It counts as in vivo. As to conditions: vehicle 66. The method, then:
7. RAT GASTRIC EMPTYING PROTOCOL
Methyl Cellulose (MC) Test Meal
1. Disperse MC in water at 80° C. at a final concentration of 1.5% under continuous stirring. Cool to room temperature.
2. Add Phenol Red (50 mg/100) to solution.
3. Keep solution stirring during entire experiment.
1. Food deprive animals for 18 hours.
2. Inject test drug/prop. glycol or prop. glycol alone intraperitoneally.
3. After 5 minutes, gavage 1.5 mL of Pheno Red/MC solution
1. After 20 minutes, decapitate animal
2. Clamp stomach at the pylorus and cardia ends, and rinse in 0.9% NaCl.
3. Place stomach in 100 mL of 0.1N NaOH, cut into small pieces, and homogenize for 30 seconds.
4. Let settle at room temperature for 60 minutes.
5. In centrifuge tube, add 5 mL of supernatant and 0.5 mL of trichloroacetic acid (29% w/v), and centrifuge at 2,800 rpm for 20 minutes.
6. Decant supernatant, and add 4 mL of 0.5N NaOH and read absorbance at a wavelength of 560 nm.
Calculations [formula] The standard stomach is determined from the phenol red recovered in stomachs of rats decapitated immediately after intragastric infusion of MC/phenol red.

Where [3] appears, read: expressed as % CCK-induced maximal response.
Where [4] appears, read: 3 × 10^-5 M test compound, expressed as % CCK-induced maximal response, read-out: % Contraction (3 × 10^-5 M).
Setting [5] is: delivered at 30 μM, read-out: Isolated guinea pig gallbladder: % contraction.
The mark [6] stands for this setting: intraperitoneally at 0.1 μmoles/kg.

Regarding `COc1ccc(N(C(=O)CN2C(=O)C(Cc3n[nH]c4ccccc34)C(=O)N(c3ccccn3)c3ccccc32)C(C)C)cc1` (stereo not shown) [Example 49, 2-[3-(1H-Indazol-3-ylmethyl)-2,4-dioxo-5-pyrid-2-yl-2,3,4,5-tetrahydro-benzo[b][1,4]diazepin-1-yl]-N-isopropyl-N-(4-methoxy-phenyl) acetamide], the activation at 1 µM in assay [1] (setting [3]) came out at 75%. The activation at 30 µM in assay [1] (setting [4]) turned out to be 91%; in assay [1] (setting [5]), 100%. In addition, the “rat gastric emptying: % emptying” value in assay [2] (setting [6]) is reported as 2.5%.
Regarding “CCK8: the Cterminal octapeptide of CCK (DYMGWMDF; ends and bridges not checked; UniProt P06307 96-103, looked up) [reference compound]”, the “Isolated guinea pig gallbladder: % contraction” value in assay [1] (delivered at 1 μM) is listed as 100%. For the same molecule, the “rat gastric emptying: % emptying” value in assay [2] (CCK-8 intraperitoneally at 30 nmoles/kg) stood at 0%.
As for `COc1ccc(N(C(=O)CN2C(=O)C(Cc3n[nH]c4ccccc34)C(=O)N(c3ccccc3)c3ccccc32)C(C)C)cc1` (stereo not shown) [Example 31, 2-[3-(1H-Indazol-3-ylmethyl)-2,4-dioxo-5-phenyl-2,3,4,5-tetrahydro-benzo[b][1,4]diazepin-1-yl]-N-isopropyl-N-(4-methoxy-phenyl) acetamide], in assay [1] (setting [5]), the activation at 30 µM is 87%. In assay [2] (setting [6]), the “rat gastric emptying: % emptying” value was found to be 6%.
Turning to `CC(C)N(C(=O)CN1C(=O)C(Cc2n[nH]c3cc(F)ccc23)C(=O)N(c2ccccc2)c2ccccc21)c1ccccc1` (stereo not shown) [Example 69, 2-[3-(6-Fluoro-1H-indazol-3-ylmethyl)-2,4-dioxo-5-phenyl-2,3,4,5-tetrahydro-benzo[b][1,4]diazepin-1-yl]-N-isopropyl-N-phenyl-acetamide], the activation at 1 µM in assay [1] (setting [3]) stood at 98%. In assay [1] (setting [4]), the activation at 30 µM was 92%.
